Laboratory results from ChEMBL document CHEMBL3507680, “University of Dundee, Gates Library screen for HepG2 cell viability”.

assay: Human HepG2 cell viability assay in 384 well format; type: toxicity, cell-based; design: dose 125 nL, time 70.5 hour; concentration not given beside the values; conditions: HepG2 cells, read-out: Inhibition

| Compound | cytotoxicity at 70.5 h [%] |
| --- | --- |
| O=C(NCC(Cc1cccc(F)c1)N1CCCC1=O)c1ccc(=O)[nH]n1 (stereo not drawn) | 1.13 |
| CCCC(=O)NCC(Cc1cccc(F)c1)N1CCCC1=O (stereo not drawn) | -3.15 |
| CS(=O)(=O)NCC(Cc1cccc(F)c1)N1CCNC1=O (stereo not drawn) | -13.3 |
| O=S(=O)(Cc1ccccc1Cl)N1CCC2(CC1)OCCS2 | -5.23 |
| CCc1ccccc1NC(=O)C1CN(C(C)=O)C1 | 11.2 |
| N#Cc1ccccc1NC(=O)C1CN(C(=O)c2ccc3c(c2)OCO3)C1 | -7 |
| O=C(Cc1cccs1)N1CCOCC1CO (stereo not drawn) | -3.61 |
| C1CCN(c2nc(N3CCOCC3)nc3[nH]nnc23)CC1 | -5.52 |
| O=C(NC1CCCC1)C1CCN(c2cc(-n3ccnc3)ncn2)CC1 | 12.8 |
| Cc1cccc(S(=O)(=O)NCC2CCN(c3cnccn3)CC2)c1 | -10.1 |
| CCc1ccc(S(=O)(=O)NCC2CCN(c3cnccn3)CC2)s1 | -10.3 |
| O=C(Cc1ccccc1Cl)NCCN1CCC(c2cccs2)CC1 | 1.31 |
| O=C(NCCc1ccccc1)NCCN1CCC(c2cccs2)CC1 | 8.49 |
| CSCC(C)(O)CNC(=O)c1cc(Cl)ccc1Cl (stereo not drawn) | -7.98 |
| CSCC(C)(O)CNS(=O)(=O)c1ccc(F)cc1 (stereo not drawn) | -7.51 |
| CSCC(C)(O)CNS(=O)(=O)c1cccc(Cl)c1 (stereo not drawn) | -4.18 |
| CSCC(C)(O)CNS(=O)(=O)c1ccc(Br)cc1 (stereo not drawn) | 23.8 |
| CSCCC(C)(O)CNC(=O)Nc1ccccc1C (stereo not drawn) | -6.41 |
| O=C(NCCC(O)c1ccco1)c1ccco1 (stereo not drawn) | -5.28 |
| CSc1ncccc1C(=O)NCCC(O)c1ccco1 (stereo not drawn) | 1.61 |
| O=C(NCCC(O)c1cccs1)c1ccc(Br)o1 (stereo not drawn) | -10.7 |
| COc1ccc(Cl)cc1NC(=O)N1CCc2nc(NC(C)=O)sc2C1 | -5.4 |
| O=C(Nc1nc2c(s1)CN(S(=O)(=O)C1CC1)CC2)c1ccc(=O)[nH]c1 | -10.9 |
| COc1ccccc1C(=O)Nc1nc2c(s1)CN(S(=O)(=O)C1CC1)CC2 | -3.51 |

| Compound | cytotoxicity at 70.5 h [%] |
| --- | --- |
| Cc1cc(C(=O)Nc2nc3c(s2)CN(S(=O)(=O)C2CC2)CC3)c(C)o1 | 4.31 |
| O=C(Nc1nc2c(s1)CN(S(=O)(=O)C1CC1)CC2)c1ccc(Cl)s1 | -11.1 |
| O=C(NCC1(O)CCOCC1)c1ccc(F)cc1 | -4.94 |
| O=S(=O)(NCC1(O)CCOCC1)c1c(F)cccc1F | -2.88 |
| O=S(=O)(NCC1(O)CCOCC1)c1ccccc1Br | -0.33 |
| COc1ccccc1OCC(=O)NCC(C)(O)c1ccccc1 (stereo not drawn) | -12.5 |
| O=S(=O)(NCC1(O)CCOc2ccccc21)c1ccccc1F (stereo not drawn) | -4.25 |
| O=S(=O)(NCC1(O)CCOc2ccccc21)c1ccccc1Br (stereo not drawn) | -0.163 |
| Cc1cc(CNC(=O)c2ccno2)c(C)o1 | -7.21 |
| Cc1cc(CNC(=O)COc2ccccc2F)c(C)o1 | -0.958 |
| COc1cc(NC(=O)NCc2cc(C)oc2C)cc(OC)c1 | -5.36 |
| O=C1CC(NS(=O)(=O)c2ccc(Br)cc2)CN1 (stereo not drawn) | -4.25 |
| O=C(NC1CC(=O)N(C2CC2)C1)c1cccs1 (stereo not drawn) | 11.1 |
| CN(C)C(=O)c1cnn2c1OCCC2 | -2.65 |
| CS(=O)(=O)N1CCN(C(=O)c2cnn3c2OCCC3)CC1 | -2.74 |
| COc1ccccc1C(=O)N1CC2(COC(C)(C)OC2)C1 | -0.0905 |
| CC1(C)OCC2(CO1)CN(C(=O)c1ccccc1Br)C2 | -4.2 |
| CC(=O)Nc1cnc(-n2ccnc2)nc1 | -1.27 |
| O=C(CN1CC(c2nc(-c3ccco3)no2)C1)NCC1CCCO1 (stereo not drawn) | 13.7 |
| Fc1ccc(COCC2CCN(Cc3ccccn3)CC2)cc1 | -4.18 |
| CN(C)CC1COCCN1C(=O)c1ccccc1C(=O)c1ccccc1 (stereo not drawn) | -7.66 |
| Cc1ccccc1C(=O)N1CCOCC1CN(C)C (stereo not drawn) | -9.03 |
| COc1cccc(C(=O)N2CCOCC2CN(C)C)c1OC (stereo not drawn) | -2.02 |
| CN(C)CC1COCCN1C(=O)C1(c2cccs2)CCCC1 (stereo not drawn) | 0.993 |
